Measured values taken from patent US20250270191A1, “QUINOLONE BCL6 BIFUNCTIONAL DEGRADERS” (Treeline Biosciences, Inc., priority 2022, published 2025).

Biological target: T1, Human BCL6 protein (N-terminal HiBiT tagged BCL6 in HT1080 cells) (Homo sapiens, UniProt P41182+Q96SW2)
T1 construct: Human BCL6 protein coding open reading frame; expressed in transfected cells; host or cells: HT1080 (ATCC CCL-121), stably transduced with lentivirus pLV-UBC-N-HiBiT-BCL6-PGK-puro
Experiment: HiBiT based BCL6 degradation assay
Assay type: cell-based
Conditions: HT1080 cells expressing N-terminal HiBiT tagged BCL6; 5 hours incubation; BCL6 degradation normalized with DMSO control
Outline: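 HT1080 cells stably expressing N-terminal HiBiT-BCL6 were treated with compound dilution series for 5 h at 37° C. in RPMI 1640 with 10% FBS. HiBiT lytic luminescence read after 15 min; degradation normalized to DMSO, with curves fitted by four-parameter logistic model.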

| SMILES | Ymin (5 hr) |
| --- | --- |
| CNC(=O)COc1cc2cc(Nc3nc(N4CCC[C@@H](COc5ccc6c(C7CCC(=O)NC7=O)nn(C)c6c5)C4)ncc3Cl)ccc2n(C)c1=O (stereo partly drawn) [Compound 302b, 2-((6-((5-chloro-2-((3R)-3-(((3-(2,6-dioxopiperidin-3-yl)-1-methyl-1H-indazol-6-yl)oxy)methyl)piperidin-1-yl)pyrimidin-4-yl)amino)-1-methyl-2-oxo-1,2-dihydroquinolin-3-yl)oxy)-N-methylacetamide] | ++ (50% < Ymin ≤ 70%) |
| CNC(=O)COc1cc2cc(Nc3nc(NC[C@@H]4CCCN(c5cccc6c(C7CCC(=O)NC7=O)nn(C)c56)C4)ncc3Cl)ccc2n(C)c1=O (stereo partly drawn) [Compound 303a, 2-((6-((5-chloro-2-((((3S)-1-(3-(2,6-dioxopiperidin-3-yl)-1-methyl-1H-indazol-7-yl)piperidin-3-yl)methyl)amino)pyrimidin-4-yl)amino)-1-methyl-2-oxo-1,2-dihydroquinolin-3-yl)oxy)-N-methylacetamide] | ++ (50% < Ymin ≤ 70%) |
| CNC(=O)COc1cc2cc(Nc3nc(NC[C@H]4CCCN(c5cccc6c(C7CCC(=O)NC7=O)nn(C)c56)C4)ncc3Cl)ccc2n(C)c1=O (stereo partly drawn) [Compound 303b, 2-((6-((5-chloro-2-((((3R)-1-(3-(2,6-dioxopiperidin-3-yl)-1-methyl-1H-indazol-7-yl)piperidin-3-yl)methyl)amino)pyrimidin-4-yl)amino)-1-methyl-2-oxo-1,2-dihydroquinolin-3-yl)oxy)-N-methylacetamide] | ++ (50% < Ymin ≤ 70%) |
| CNC(=O)COc1cc2cc(Nc3nc(NC[C@H]4CC[C@@H](Nc5cccc6c(C7CCC(=O)NC7=O)nn(C)c56)CC4)ncc3Cl)ccc2n(C)c1=O (stereo partly shown) [Compound 304a, 2-((6-((5-chloro-2-((((1s,4s)-4-((3-(2,6-dioxopiperidin-3-yl)-1-methyl-1H-indazol-7-yl)amino)cyclohexyl)methyl)amino)pyrimidin-4-yl)amino)-1-methyl-2-oxo-1,2-dihydroquinolin-3-yl)oxy)-N-methylacetamide] | ++ (50% < Ymin ≤ 70%) |
| CNC(=O)COc1cc2cc(Nc3nc(NC[C@H]4CC[C@H](Nc5cccc6c(C7CCC(=O)NC7=O)nn(C)c56)CC4)ncc3Cl)ccc2n(C)c1=O (stereo partly shown) [Compound 304b, 2-((6-((5-chloro-2-((((1r,4r)-4-((3-(2,6-dioxopiperidin-3-yl)-1-methyl-1H-indazol-7-yl)amino)cyclohexyl)methyl)amino)pyrimidin-4-yl)amino)-1-methyl-2-oxo-1,2-dihydroquinolin-3-yl)oxy)-N-methylacetamide] | ++ (50% < Ymin ≤ 70%) |
| CNC(=O)COc1cc2cc(Nc3nc(N4CCN(C[C@H]5CCN(c6cccc7c(C8CCC(=O)NC8=O)nn(C)c67)C5)CC4)ncc3Cl)ccc2n(C)c1=O (stereo partly drawn) [Compound 305a, 2-((6-((5-chloro-2-(4-(((3R)-1-(3-(2,6-dioxopiperidin-3-yl)-1-methyl-1H-indazol-7-yl)pyrrolidin-3-yl)methyl)piperazin-1-yl)pyrimidin-4-yl)amino)-1-methyl-2-oxo-1,2-dihydroquinolin-3-yl)oxy)-N-methylacetamide] | +++ (25% < Ymin ≤ 50%) |
| CNC(=O)COc1cc2cc(Nc3nc(N4CCN(C[C@@H]5CCN(c6cccc7c(C8CCC(=O)NC8=O)nn(C)c67)C5)CC4)ncc3Cl)ccc2n(C)c1=O (stereo partly drawn) [Compound 305b, 2-((6-((5-chloro-2-(4-(((3S)-1-(3-(2,6-dioxopiperidin-3-yl)-1-methyl-1H-indazol-7-yl)pyrrolidin-3-yl)methyl)piperazin-1-yl)pyrimidin-4-yl)amino)-1-methyl-2-oxo-1,2-dihydroquinolin-3-yl)oxy)-N-methylacetamide] | +++ (25% < Ymin ≤ 50%) |
